The values that follow come from publication PMC7997397, ““Bottom-Up” Strategy for the Identification of Novel Soybean Peptides with Angiotensin-Converting Enzyme Inhibitory Activity” (Journal of Agricultural and Food Chemistry, 2020).

Like-named read-outs stand apart in the source and are kept apart here. Ends that are not written are not given here. Peptide text beside a SMILES is read from it.

In series [1] the test system is ACE. The following applies: read-out: IC50 ACE inhibition in vitro, cited from earlier work. The source says:
It is well-recognized that soybean proteins contain many bioactive peptides exerting multiple health benefits, that is, hypocholesterolemic, antidiabetic, antitumor, and hypotensive activity. […] Moreover, after the hydrolysis of soybean proteins with pepsin, five peptides have been identified showing in vitro and in vivo hypotensive activity. […] Their bl ...

For series [2], the target named is T1, ACE in human intestinal Caco-2 cells (Homo sapiens, UniProt P12821).
T1 construct: endogenous in cells; host or cells: Caco-2 cells (INSERM, Paris)
The series is described as follows: ACE activity cell-based assay (in situ) in Caco-2 cells. The settings on record: nondifferentiated Caco-2 cells 5 × 10^4/well, 0.1–250 μM, 24 h, 37 °C; ACE activity in cell lysates with fluorescent substrate; mean ± s.d. of three independent experiments in triplicate. The procedure: (§1) Soy1 and LPYP were tested on Caco-2 and HK2 cells (5 × 10^4/well in black 96-well plates) in 0.1–250.0 μM concentration ranges or vehicle in growth medium for 24 h at 37 °C. For a 2D cell culture on RADA16-Soy1 and RADA-LPYP hydrogels, Caco-2 cells were seeded on the surface of the abovementioned hydrogels at a density of 5 × 10^4/well. On the next day, the ACE inhibitory activity was measured using an ACE1 Activity Assay Kit (BioVision, Milpitas Blvd., Milpitas, CA, USA) following the manufacturer’s protocol. See the “Supporting Information” for further details on Acer activity cell-based assay.
(§2) In particular, Caco-2 and HK-2 cells (5 × 10^4/well) were treated with Soy1 and LPYP (0.1–250 μM) overnight. The following day, cells were lysated and the ACE activity was measured directly in the cell lysates using a fluorescent ACE substrate; in this assay, the fluorescent signal is proportional to the enzyme activity.
(§3) Figure 2 In situ evaluation of the ACE activity. […] Data represent the mean ± s.d. of three independent experiments performed in triplicate. […]
absence of carryover effects. […]
ACE activity cell-based assay. […] The next day, The ACE inhibitory activity was measured using the ACE1 Activity Assay Kit (Biovision, Milpitas Blvd., Milpitias, CA, USA) following the manufacture’s protocol. […]

Series [3] has as its system differentiated Caco-2 cells. The following applies: 2 h of incubation in the apical side of monolayers; cited from earlier work. The source says: Mature enterocytes represent the first physiological barrier that bioactive food peptides encounter after ingestion; therefore, their absorption is a dynamic proces ...
The nature of series [4]: In vitro gastrointestinal digestion with pepsin and pancreatin. Type of series: in vitro ADME. The following applies: peptide 100 μM; pepsin 1:100 enzyme-to-substrate, pH 2.0, 37 °C, 90 min, then pancreatin 1:50, pH 7.2, 37 °C, 150 min; HPLC-Chip ion trap MS; mean ± s.d. of three independent experiments in triplicate; read-out: degraded after codigestion with pepsin and pancreatin vs undigested peptide. Here is the method:
Pepsin solution (4 mg/mL in NaCl) was added to Soy1 and LPYP (100 μM) at a 1:100 enzyme-to-substrate ratio (pH 2.0). The digestion was conducted at 37 °C for 90 min under continuous stirring, and then, the pH was adjusted to 7.2 with 1 M NaOH in order to inactivate the enzyme. Then, pancreatin (4 mg/mL in H2O) was added at a 1:50 enzyme-to-substrate ratio. After digestion, at 37 °C for 150 min, the enzyme was inactivated by heating at 95 °C for 10 min. Further details regarding the analysis are available in the “Supporting Information”.
Their metabolic propensity to be degraded by peptidases, which are physiologically active along the entire gastrointestinal tract, might dramatically influence the bioactivity of food peptides. The literature provides many studies dealing with the assessment of food bioactive peptide stability to the simulated gastric digestion.[22],[23] In order to in-depth characterize the multifunctional behavior of Soy1 and LPYP, their stability toward the in vitro gastric digestion was assessed using pepsin and pancreatin.
Figure 1 In vitro gastrointestinal digestion. […]
In vitro digestion of Soy1 and LPYP. […] Soy1 and LPYP samples undigested and after digestion were analyzed on a SL IT mass spectrometer interfaced with a HPLC- Chip Cube source (Agilent Technologies, Palo Alto, CA, USA). […] A blank was analyzed between samples to ensure

Series [5] concerns the target T2, ACE in human kidney HK-2 cells (Homo sapiens, UniProt P12821).
T2 construct: endogenous in cells; host or cells: HK-2 cells (ATCC)
The series is described as follows: ACE activity cell-based assay (in situ) in HK-2 cells. The settings on record: for IC50: renal HK-2 cells 5 × 10^4/well, 0.1–250 μM, 24 h, 37 °C, ACE activity in cell lysates with fluorescent substrate, mean ± s.d. of three independent experiments in triplicate. Here is the method:
as §1, §2, §3
absence of carryover effects. The peptides were identified by comparing their retention times, MS profiles, and MS/MS fragmentation spectra with those of authentic standards.
ACE activity cell-based assay. […] The next day, The ACE inhibitory activity was measured using the ACE1 Activity Assay Kit (Biovision, Milpitas Blvd., Milpitias, CA, USA) following the manufacture’s protocol.
Briefly, cells were scraped in 30.0 μL of ice-cold ACE lysis buffer and transferred in an ice-cold microcentrifuge tube. […] Total proteins were quantified by Bradford method, and 2.0 μg of proteins (the equivalent of 2 μL) were added to 18.0 μL of ACE lysis buffer in each well in a black 96-well plates with clear bottoms. […] Then, 20.0 μL of 4% of ACE substrate (in assay buffer) was added in each well except the background one and the fluorescence (Ex/Em 330/430 nm) was measured in a kinetic mode for 10 min at 37 °C using […]

[6] abbreviates: peptides from pepsin hydrolysis of soybean proteins.
Where [7] appears, read: soybean peptides reported in the literature.

T2 sequence (P12821 30-1306): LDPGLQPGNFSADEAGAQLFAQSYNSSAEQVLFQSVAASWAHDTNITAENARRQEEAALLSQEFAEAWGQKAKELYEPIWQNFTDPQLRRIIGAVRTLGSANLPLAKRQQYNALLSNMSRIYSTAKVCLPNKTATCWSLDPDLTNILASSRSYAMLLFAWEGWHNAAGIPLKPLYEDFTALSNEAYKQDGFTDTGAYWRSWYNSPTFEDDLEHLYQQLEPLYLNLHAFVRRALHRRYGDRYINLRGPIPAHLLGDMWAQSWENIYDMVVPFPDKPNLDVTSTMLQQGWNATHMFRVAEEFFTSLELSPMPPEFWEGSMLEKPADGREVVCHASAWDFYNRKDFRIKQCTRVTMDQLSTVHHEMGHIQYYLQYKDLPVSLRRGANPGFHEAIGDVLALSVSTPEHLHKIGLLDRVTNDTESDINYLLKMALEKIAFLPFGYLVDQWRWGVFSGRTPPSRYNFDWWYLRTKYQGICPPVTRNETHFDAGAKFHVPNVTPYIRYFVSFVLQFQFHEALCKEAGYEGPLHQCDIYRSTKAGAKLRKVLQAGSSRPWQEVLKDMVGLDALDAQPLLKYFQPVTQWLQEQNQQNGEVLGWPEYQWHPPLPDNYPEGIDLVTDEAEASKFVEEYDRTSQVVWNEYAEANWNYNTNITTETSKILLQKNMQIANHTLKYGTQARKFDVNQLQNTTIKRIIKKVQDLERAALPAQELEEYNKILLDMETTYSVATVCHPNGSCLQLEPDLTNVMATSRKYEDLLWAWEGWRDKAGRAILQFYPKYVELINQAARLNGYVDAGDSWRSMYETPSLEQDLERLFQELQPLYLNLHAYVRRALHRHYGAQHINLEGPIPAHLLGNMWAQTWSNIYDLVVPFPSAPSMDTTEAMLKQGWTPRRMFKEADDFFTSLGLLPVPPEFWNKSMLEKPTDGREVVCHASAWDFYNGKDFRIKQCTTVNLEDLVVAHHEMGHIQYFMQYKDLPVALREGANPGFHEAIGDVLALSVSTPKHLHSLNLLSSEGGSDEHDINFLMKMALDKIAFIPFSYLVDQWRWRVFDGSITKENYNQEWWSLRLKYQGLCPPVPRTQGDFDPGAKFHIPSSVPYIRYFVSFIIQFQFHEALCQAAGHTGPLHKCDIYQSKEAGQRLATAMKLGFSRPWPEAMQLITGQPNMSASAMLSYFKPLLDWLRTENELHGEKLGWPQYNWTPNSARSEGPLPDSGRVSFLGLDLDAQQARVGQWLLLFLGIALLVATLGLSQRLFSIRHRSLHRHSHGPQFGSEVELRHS
T1 sequence (P12821 30-1306): as above

A word on the IC50: it is the point on the concentration scale where inhibition reaches its midpoint. On to “VMDKPQG [peptide from pepsin hydrolysis of soybean proteins]”, for which the IC50 in series [1] (setting [6]) was 39 µM.
As to IAVPTGVA [Soy1, IAVPTGVA], the values for the half-maximal inhibitory concentration (IC50) in series [2] and in series [5] were 14.7 ± 0.28 µM and 6 ± 0.35 µM, respectively. The “absorption by differentiated Caco-2 cells” value in series [3] is on record as “better absorbed than LPYP”. Moreover, in series [4], the metabolised at 4 h, 100 μM was 27.7 ± 0.3%. In series [5] (comparison of IC50 values in HK-2 and Caco-2 cells), the “relative ACE inhibitory activity, renal (HK-2) vs intestinal (Caco-2) level” value was “twofold more active at the renal level than at the intestinal level”.
Take “IYLL [peptide from pepsin hydrolysis of soybean proteins]”: in series [1] (setting [6]), the IC50 was 42 µM.
On to “YLAGNQ [peptide from pepsin hydrolysis of soybean proteins]”, for which, in series [1] (setting [6]), the IC50 is 14 µM.
For “SPYP [peptide from soybean glycinin hydrolysed by Monascus purpureus acid proteinase]”, the 50% inhibitory concentration (IC50) in series [1] (setting [7]) is 850 µM.
As for LAIPVNKP, the half-maximal inhibitory concentration (IC50) in series [1] (setting [7]) was 70 µM.
In the case of FFL, the IC50 in series [1] (setting [6]) was 37 µM.
With LPHF, the IC50 in series [1] (setting [7]) was 670 µM.
Take `CC(C)C[C@H](N)C(=O)N1CCC[C@H]1C(=O)N[C@@H](Cc1ccc(O)cc1)C(=O)N1CCC[C@H]1C(=O)O` [LPYP] (H-LPYP-OH): the IC50 amounted to 5 ± 0.28 µM in series [2] and 6.8 ± 0.2 µM in series [5]. For the same compound, the metabolised at 4 h, 100 μM in series [4] came to 28.5 ± 1.4%.
